According to ChEMBL document CHEMBL5357084, “Structure-Guided Discovery of Diverse Cytotoxic Dimeric Xanthones/Chromanones from Penicillium chrysogenum C-7-2-1 and Their Interconversion Properties” (J Nat Prod, 2024):
The source made the active and inactive calls. The rule behind the calls is not given here.

How the values were obtained:
[1] = test system: NCI-H23; assay: Cytotoxicity against human NCI-H23 cells […] at 50 uM measured after 48 hrs by MTT assay relative to control; assay type: functional
[2] = test system: SW-620; assay: Cytotoxicity against human SW620 cells assessed as inhibition of cell growth at 50 uM measured after 48 hrs by MTT assay relative to control; assay type: functional
[3] = test system: NCI-H1299; assay: Cytotoxicity against human NCI-H1299 cells assessed as inhibition of cell growth at 50 uM measured after 48 hrs by MTT assay relative to control; assay type: functional; parameters: scale not given: the % may be the effect or the level left
[4] = test system: Caco-2; assay: Cytotoxicity against human Caco-2 cells assessed as inhibition of cell growth at 50 uM measured after 48 hrs by MTT assay relative to control; assay type: functional; parameters: scale not given: the % may be the effect or the level left
[5] = test system: A-375; assay: Cytotoxicity against human A-375 cells […] at 50 uM measured after 48 hrs by MTT assay relative to control; assay type: functional
[6] = test system: BEAS-2B; assay: Cytotoxicity against human BEAS-2B cells assessed as inhibition of cell growth at 50 uM measured after 48 hrs by MTT assay relative to control; assay type: functional
[7] = test system: NCI-H23; assay: Cytotoxicity against human NCI-H23 cells assessed as inhibition of cell growth measured after 48 hrs by MTT assay; assay type: functional, cell-based; settings: NCI-H23, 48 h
[8] = test system: SW-620; assay: Cytotoxicity against human SW620 cells assessed as inhibition of cell growth measured after 48 hrs by MTT assay; assay type: functional, cell-based
[9] = test system: NCI-H1299; assay: Cytotoxicity against human NCI-H1299 cells assessed as inhibition of cell growth measured after 48 hrs by MTT assay; assay type: functional, cell-based; settings: NCI-H1299, 48 h
[10] = test system: Caco-2; assay: Cytotoxicity against human Caco-2 cells assessed as inhibition of cell growth measured after 48 hrs by MTT assay; assay type: functional, cell-based; settings: Caco-2, 48 h
[11] = test system: A-375; assay: Cytotoxicity against human A-375 cells assessed as inhibition of cell growth measured after 48 hrs by MTT assay; assay type: functional, cell-based; settings: A-375, 48 h
[12] = test system: BEAS-2B; assay: Cytotoxicity against human BEAS-2B cells assessed as inhibition of cell growth measured after 48 hrs by MTT assay; assay type: functional, cell-based
[13] = test system: NCI-H23; assay: Induction of cell cycle arrest in human NCI-H23 cells assessed as accumulation of cells at G1 phase at 5 uM incubated for 24 hrs by PI staining based flow cytometry analysis (reference value: 56.95+/-1.02%); assay type: functional
[14] = test system: NCI-H23; assay: Induction of cell cycle arrest in human NCI-H23 cells assessed as accumulation of cells at G1 phase at 10 uM incubated for 24 hrs by PI staining based flow cytometry analysis (reference value: 56.95+/-1.02%); assay type: functional
[15] = test system: NCI-H23; assay: Induction of cell cycle arrest in human NCI-H23 cells assessed as accumulation of cells at S phase at 5 uM incubated for 24 hrs by PI staining based flow cytometry analysis (reference value: 15.45+/-1.79%); assay type: functional
[16] = test system: NCI-H23; assay: Induction of cell cycle arrest in human NCI-H23 cells assessed as accumulation of cells at S phase at 10 uM incubated for 24 hrs by PI staining based flow cytometry analysis (reference value: 15.45+/-1.79%); assay type: functional
[17] = test system: NCI-H23; assay: Induction of cell cycle arrest in human NCI-H23 cells assessed as accumulation of cells at G2/M phase at 5 uM incubated for 24 hrs by PI staining based flow cytometry analysis (reference value: 27.60+/-0.83%); assay type: functional
[18] = test system: NCI-H23; assay: Induction of cell cycle arrest in human NCI-H23 cells assessed as accumulation of cells at G2/M phase at 10 uM incubated for 24 hrs by PI staining based flow cytometry analysis (reference value: 27.60+/-0.83%); assay type: functional
[19] = test system: NCI-H23; assay: Induction of cell cycle arrest in human NCI-H23 cells assessed as accumulation of cells at SubG1 phase at 5 to 10 uM incubated for 24 hrs by PI staining based flow cytometry analysis (reference value: 0%); assay type: functional; settings: dose 5-10 µM
[20] = test system: NCI-H23; assay: Induction of apoptosis in human NCI-H23 cells assessed as apoptosis rate at 5 uM incubated for 24 hrs by annexin V-FITC and propidium iodide staining based flow cytometry analysis (reference value: 6.88+/-2.63%); assay type: functional
[21] = test system: NCI-H23; assay: Induction of apoptosis in human NCI-H23 cells assessed as apoptosis rate at 10 uM incubated for 24 hrs by annexin V-FITC and propidium iodide staining based flow cytometry analysis (reference value: 6.88+/-2.63%); assay type: functional
[22] = test system: NCI-H23; assay: Induction of apoptosis in human NCI-H23 cells assessed as apoptosis rate incubated for 24 hrs by annexin V-FITC and propidium iodide staining based flow cytometry analysis; assay type: functional, cell-based; settings: dose 5-10 µM
[23] = Homo sapiens, SW-620, 48 h, read-out: IC50

## COC(=O)[C@@]12Oc3ccc(-c4ccc5c(c4O)C(=O)C[C@](C(=O)OC)([C@H]4OC(=O)C[C@@H]4C)O5)c(O)c3C(=O)C1=C(O)C[C@H](C)[C@H]2O
[1]
  Activity: 87.6%
[2]
  Cell growth relative to control: 90.4%
[3]
  Activity: 78.4%
[4]
  Activity: 82.5%
[5]
  Activity: 74.7%
[6]
  Cell growth relative to control: 109.9%

## COC(=O)[C@@]12Oc3c(c(O)cc(C)c3-c3ccc4c(c3O)C(=O)C3=C(O)C[C@H](C)[C@H](O)[C@]3(C(=O)OC)O4)C(=O)C1=C(O)CC[C@H]2O
[1]
  Activity: 82.6%
[2]
  Cell growth relative to control: 106.3%
[3]
  Activity: 81.1%
[4]
  Activity: 85%
[5]
  Activity: 79.9%
[6]
  Cell growth relative to control: 99.5%

## CNC(=O)c1cc(Oc2ccc(NC(=O)Nc3ccc(Cl)c(C(F)(F)F)c3)cc2)ccn1 [SORAFENIB]
[7]
  IC50: 2.4 µM
[8]; [23]
  IC50: 2.3 µM
[9]
  IC50: 3.4 µM
[10]
  IC50: 1.3 µM
[11]
  IC50: 1.8 µM
[12]; Homo sapiens, BEAS-2B, 48 h, read-out: IC50
  IC50: 31.6 µM

## COC(=O)[C@]12Oc3ccc(-c4ccc5c(c4O)C(=O)C4=C(O)C[C@@H](C)[C@H](O)[C@@]4(C(=O)OC)O5)c(O)c3C(=O)C1=C(O)C[C@@H](C)[C@@H]2O [SECALONIC ACID A]
[7]
  IC50: 2.6 µM
[8]; [23]
  IC50: > 50 µM
[9]
  IC50: > 50 µM
[10]
  IC50: > 50 µM
[11]
  IC50: > 50 µM
[12]; beas-2b
  IC50: Not Active
[1]
  Activity: 8.7%
[2]
  Cell growth relative to control: 80.1%
[3]
  Activity: 73.6%
[4]
  Activity: 54.5%
[5]
  Activity: 75.6%
[6]
  Cell growth relative to control: 107.3%

## COC(=O)C[C@H](C)[C@@H](O)[C@]1(C(=O)OC)CC(=O)c2c(ccc(-c3ccc4c(c3O)C(=O)C[C@](C(=O)OC)([C@@]3(O)OC(=O)C[C@@H]3C)O4)c2O)O1
[1]
  Activity: 73.6%
[2]
  Cell growth relative to control: 115.5%
[3]
  Activity: 87.9%
[4]
  Activity: 92.1%
[5]
  Activity: 94.4%
[6]
  Cell growth relative to control: 171.6%

## COC(=O)[C@@]12Oc3ccc(-c4ccc(O)c5c4O[C@@](C(=O)OC)([C@H]4OC(=O)C[C@@H]4C)CC5=O)c(O)c3C(=O)C1=C(O)C[C@H](C)[C@H]2O
[1]
  Activity: 56%
[2]
  Cell growth relative to control: 94.9%
[3]
  Activity: 65.9%
[4]
  Activity: 82.4%
[5]
  Activity: 76.8%
[6]
  Activity: inactive

## COC(=O)[C@@]1([C@H](O)[C@@H](C)CC(=O)O)CC(=O)c2c(ccc(-c3ccc4c(c3O)C(=O)C[C@@](C(=O)OC)([C@H](O)[C@@H](C)CC(=O)O)O4)c2O)O1
[1]
  Activity: 83.6%
[2]
  Cell growth relative to control: 98.7%
[3]
  Activity: 64.9%
[4]
  Activity: 94.4%
[5]
  Activity: 103.2%
[6]
  Cell growth relative to control: 105.5%

## COC(=O)[C@@]12Oc3c(-c4ccc5c(c4O)C(=O)C[C@](C(=O)OC)([C@@H]4OC(=O)C[C@@H]4C)O5)ccc(O)c3C(=O)C1=C(O)C[C@H](C)[C@H]2O
[1]
  Activity: 102.6%
[2]
  Cell growth relative to control: 117%
[3]
  Activity: 66.2%
[4]
  Activity: 102.4%
[5]
  Activity: 106%
[6]
  Cell growth relative to control: 96.8%

## COC(=O)[C@@]1([C@H](O)[C@@H](C)CC(=O)O)CC(=O)c2c(ccc(-c3ccc(O)c4c3O[C@](C(=O)OC)([C@H](O)[C@@H](C)CC(=O)O)CC4=O)c2O)O1
[1]
  Activity: 73.1%
[2]
  Cell growth relative to control: 99.3%
[3]
  Activity: 78.6%
[4]
  Activity: 94.4%
[5]
  Activity: 91.7%
[6]
  Cell growth relative to control: 110%

## COC(=O)[C@@]12Oc3c(-c4ccc5c(c4O)C(=O)C[C@](C(=O)OC)([C@H]4OC(=O)C[C@@H]4C)O5)ccc(O)c3C(=O)C1=C(O)C[C@H](C)[C@H]2O
[1]
  Activity: 82.8%
[2]
  Cell growth relative to control: 111%
[3]
  Activity: 64.2%
[4]
  Activity: 99.2%
[5]
  Activity: 86.1%
[6]
  Cell growth relative to control: 179.2%

## COC(=O)[C@]1([C@H]2OC(=O)C[C@@H]2C)CC(=O)c2c(ccc(-c3ccc4c(c3O)C(=O)C[C@@](C(=O)OC)([C@H](O)[C@@H](C)CC(=O)O)O4)c2O)O1
[7]
  IC50: > 50 µM
[8]; [23]
  IC50: > 50 µM
[9]
  IC50: > 50 µM
[10]
  IC50: 25.9 µM
[11]
  IC50: > 50 µM
[12]; beas-2b
  IC50: Not Active
[1]
  Activity: 90.1%
[2]
  Cell growth relative to control: 70.5%
[3]
  Activity: 76.4%
[4]
  Activity: 46.8%
[5]
  Activity: 63%
[6]
  Cell growth relative to control: 158.7%

## COC(=O)C[C@H](C)[C@@H](O)[C@]1(C(=O)OC)CC(=O)c2c(O)ccc(-c3ccc4c(c3O)C(=O)C[C@](C(=O)OC)([C@@]3(O)OC(=O)C[C@@H]3C)O4)c2O1
[1]
  Activity: 86.7%
[2]
  Cell growth relative to control: 72.9%
[3]
  Activity: 70.4%
[4]
  Activity: 55.9%
[5]
  Activity: 102.5%
[6]
  Cell growth relative to control: 171%

## COC(=O)[C@@]12Oc3c(-c4ccc(O)c5c4O[C@]4(C(=O)O)C(=C(O)C[C@@H](C)[C@@H]4O)C5=O)ccc(O)c3C(=O)C1=C(O)C[C@H](C)[C@@H]2O
[7]
  IC50: 3.9 µM
[8]; sw-620
  IC50: Not Active
[9]
  IC50: 30.9 µM
[10]
  IC50: > 50 µM
[11]
  IC50: > 50 µM
[12]; beas-2b
  IC50: Not Active
[1]
  Activity: 6.7%
[2]
  Cell growth relative to control: 99.9%
[3]
  Activity: 38.2%
[4]
  Activity: 73.2%
[5]
  Activity: 84.1%
[6]
  Cell growth relative to control: 155.5%

## COC(=O)[C@@]12Oc3cc(C)c(-c4ccc5c(c4O)C(=O)C4=C(O)C[C@H](C)[C@H](O)[C@]4(C(=O)OC)O5)c(O)c3C(=O)C1=C(O)CC[C@H]2O
[7]
  IC50: 6.9 µM
[8]; [23]
  IC50: > 50 µM
[9]
  IC50: > 50 µM
[10]
  IC50: > 50 µM
[11]
  IC50: > 50 µM
[12]; beas-2b
  IC50: Not Active
[1]
  Activity: 5.2%
[2]
  Cell growth relative to control: 98.9%
[3]
  Activity: 76.4%
[4]
  Activity: 68.9%
[5]
  Activity: 83.9%
[6]
  Cell growth relative to control: 155.8%

## COC(=O)[C@@]12Oc3ccc(-c4ccc(O)c5c4O[C@]4(C(=O)OC)C(=C(O)C[C@H](C)[C@@H]4O)C5=O)c(O)c3C(=O)C1=C(O)C[C@H](C)[C@H]2O
[7]
  IC50: 6.4 µM
[8]; sw-620
  IC50: Not Active
[9]
  IC50: > 50 µM
[10]
  IC50: > 50 µM
[11]
  IC50: > 50 µM
[12]; beas-2b
  IC50: Not Active
[1]
  Activity: 7.2%
[2]
  Cell growth relative to control: 98.6%
[3]
  Activity: 64.9%
[4]
  Activity: 70.2%
[5]
  Activity: 75%
[6]
  Cell growth relative to control: 151.6%
[13]
  Activity: 46.56%
[14]
  Activity: 38.68%
[15]
  Activity: 15%
[16]
  Activity: 8.85%
[17]
  Activity: 38.43%
[18]
  Activity: 52.48%
[19]
  Activity: 0%
[20]
  Activity: 45.71%
[21]
  Activity: 60.11%
[22]
  Activity: Dose-Dependent Effect
